Earlier results in patent US20140187648A1, “Identifying Subjects in Need of Treatment” (HOWARD FOUNDATION HOLDINGS LTD., priority 2013, published 2014).

System: subjects who exhibit an abnormally low concentration of MP in the central portion of the retina

Molecule	effect on MP (subjects with abnormally low MP in the central portion of the retina)	MP levels outside the central portion of the retina (subjects with abnormally low central MP)	MP levels in the central portion of the retina (subjects with abnormally low central MP, eccentricity 0.25° or less)
CC1=C[C@H](O)CC(C)(C)[C@H]1/C=C/C(C)=C/C=C/C(C)=C/C=C/C=C(C)/C=C/C=C(C)/C=C/C1=C(C)C[C@@H](O)CC1(C)C [lutein, reference compound]	little effect	–	–
meso-zeaxanthin [MZ]	–	little effect	return MP levels in the central portion of the retina substantially to normal
